US12605455B2, “CAR peptide for improved coronavirus survival” (Vascular Biosciences, priority 2020, dated 2026)
Like-named read-outs stand apart in the source and are kept apart here. Bridge positions count the residues as written; N and C are the ends. Peptide text beside a SMILES is read from it.

Columns and labels:
[1] = tested on: endothelium of lung, liver and kidney; test: Scanning electron micrographs of lung, liver and kidney, sivelestat with or without CAR in septic animals; assay type: in vivo
From the text: Scanning electron micrographs of lung tissue from control, sivelestat alone, and CAR+sivelestat treated animals. The pulmonary vasculature is shown in the enlargement.
Scanning electron micrographs of liver tissue from control, sivelestat alone, and CAR+sivelestat treated animals. The fenestrated sinusoidal endothelium with clusters of fenestrations, or ‘sieve plates,’ are visible in the control liver vasculature.
Scanning electron micrographs of kidney tissue from control, sivelestat alone, and CAR+sivelestat treated animals. In the enlargement shown of the […] vasculature, the fenestrated glomerular endothelium surrounded by podocyte foot processes (red arrow). […] This is presumably due to activation of neutrophil elastase which leads to proteolytic degradation of critical extracellular matrix proteins. […] The activity of sivelestat's anti-elastase appears to be efficiently boosted by CAR's selective homing to the injured endothelial glycocalyx in the kidney.
(§1) Thus, CAR could potentially adjuvant efficacy of other drugs against viral sepsis, including CAR in combination with sivelstat, as shown at lung (FIG. 9), liver (FIG. 10) and kidney (FIG. 11) samples.

LPS model of sepsis = test: LPS model of sepsis, survival with sivelestat with or without CAR; assay type: in vivo
From the text: as §1

hypertensive lungs = conditions: isolated perfused lung experiments (Toba et al. 2014); cited from earlier work
[2] = Safety pharmacology and TID 10-day rising-dose and multiple-dose tolerance study of CAR in rats; assay type: in vivo
[3] = Two-month repeat administration of CAR to pigs; assay type: in vivo; conditions: IV 3 mg/kg
[4] = CAR 3 mg/kg i.v. for 14 days
Irwin test in rats = assay type: in vivo
LPS-induced endotoxemia = test: Survival after LPS-endotoxemia, hydrocortisone with or without CAR; assay type: in vivo, mice; conditions: for survival rate 48 hours after LPS: C57BL/6 male mice, LPS 20 mg/kg IP
Experimental: 10-week-old C57BL/6 male mice were given an intraperitoneal (IP) injection of Escherichia coli 055:B5 LPS 20 mg/kg. Mice were injected i.p. with 20 mg/kg lipopolysaccharide (LPS). Five different treatments were initiated: saline only group (Untreated, n=31); CAR peptide-alone administration 20 mg/kg ([…]) (CAR alone, n=20); hydrocortisone 0.2 mg/kg or 10 mg/kg Low-HCT or High-HCT, n=20, 28 respectively); and CAR 20 mg/kg co-administered with hydrocortisone 0.2 mg/kg (Low HCT+CAR, n=20). Hydrocortisone and/or CAR peptide were injected intraperitoneally at 3, 12 and 24 hours after LPS administration.

SARS-CoV2 [5] = assay type: in vivo, K18-hACE2 transgenic mice; conditions: hydrocortisone 0.2 mg/kg ip every 6 hours, alone or with CAR 8 mg/kg ip
CLP sepsis = test: Cecal ligation and puncture (2CLP) rat model of sepsis, hydrocortisone with or without CAR; assay type: in vivo, rats
Experimental: At 40 hours, 4 of the 5 rats in the HCT+CAR group survived while none of the rats in either the HCT group nor the sepsis group survived for 40 hours (n=5 in each group) (Log-rank P=0.008).
8-10 week-old male Sprague Dawley rats were exposed to CLP. Rats were randomized (n=5/group) to saline, hydrocortisone (0.2 mg/kg IV), or CAR (3 mg/kg IV)+HCT. Treatments were initiated 12 hours after surgery, and given every 12 hours afterwards until death, for a maximum of 5 days. Rats were treated with fluid resuscitation but not with antibiotics in this model. Survival was highest in the CAR+HCT group (FIG. 6) (Log-rank P=0.008) and the median Ang2/Ang1 ratio was lower in CAR+HCT than the hydrocortisone group (0.60 vs 1.69, p=0.06).

SARS-CoV2 [6] = assay type: in vivo, K18-hACE2 transgenic mice; conditions: HCT 0.2 mg/kg/dose via IT installation every 24 hours: free, liposome encapsulated or CAR-liposome encapsulated
SARS-CoV2 [7] = assay type: in vivo, K18-hACE2 transgenic mice; conditions: HCT 0.2 mg/kg/dose iv every 12 hours: free, liposome encapsulated or CAR-liposome
[8] = tested on: endothelium and endothelial glycocalyx of kidney, lung and liver; test: Ultrastructural analysis (scanning electron microscopy) of endothelium and endothelial glycocalyx after LPS; assay type: in vivo; conditions: mice 48 hours after LPS; hydrocortisone 0.2 mg/kg with or without CAR
Experimental: Capillaries of the kidney are fenestrated capillaries which have small holes at endothelial cells. The destruction of this structure was 48 hours after LPS injection. Then, the endothelial wall became edematous and there was deposited fibrin on it. Capillaries of the lung are continuous type of capillaries. Although the vascular endothelium of the lung is thinner at the edges of the nucleus, edema occurred and vascular endothelial structure was impaired 48 hours after LPS injection. Capillaries of the liver are sinusoids which have a lot of large […] gap in normal capillaries. 48 hours after LPS administration, these structures have already broken the edematous of the vascular endothelium and deposited fibrin.
The endothelial glycocalyx (GCX) of the apical endothelial surface of each organ can by visualized using scanning electron microscopy (SEM) to assess GCX appearance and structure. GCX was largely denuded in the untreated sepsis group but the GXX damage was attenuated when CAR is co-administered with low-HCT.
Mice were sacrificed at 48 hours after LPS administration, and kidney, lung and liver were obtained to create frozen fracture freeze-dried samples to detect endothelial changes with electron microscopy. The specimens were examined under a scanning electron microscope (S-4500, Hitachi). […]

[9] = sivelestat 0.5 mg/kg or sivelestat 0.5 mg/kg + CAR

CC(C)(C)C(=O)Oc1ccc(S(=O)(=O)Nc2ccccc2C(=O)NCC(=O)O)cc1 [Sivelestat, sivelestat]
glomerular endothelium fenestrations, SEM kidney images [1]: fenestrations are absent and gross tissue damage is apparent | liver sinusoidal endothelium sieve plates, SEM liver images [1]: not able to prevent defenestration of sieve plates | pulmonary arteriole endothelium, SEM lung images [1]: did not prevent degradation of the continuous pulmonary arteriole endothelium | Survival Rate (%) 12 h (LPS model of sepsis; sivelestat 0.5 mg/kg (n=20) or sivelestat 0.5 mg/kg + CAR (n=18)): 100% | Survival Rate (%) 24 h (LPS model of sepsis; [9]): 85% | Survival Rate (%) 36 h (LPS model of sepsis; [9]): 60% | Survival Rate (%) 48 h (LPS model of sepsis; [9]): 50%

C[C@@H]1NC(=O)[C@@H](N)CSSC[C@@H](C(=O)O)NC(=O)[C@H](CC(=O)O)NC(=O)[C@H](CCCCN)NC(=O)[C@H](CC(N)=O)NC(=O)[C@H](CCCCN)NC(=O)[C@H](CO)NC(=O)[C@H](CCCNC(=N)N)NC1=O [CAR, CARSKNKDC] (H-CARSKNKDC-OH; disulfide 1-9; N-terminus and C-terminus assumed)
concentration of the co-administered drug in the diseased lung (hypertensive lungs): doubling | mortality, clinical observations, hematology, coagulation, clinical chemistry ([2]; TID 10-day rising-dose and multiple-dose, up to highest dose 20 mg/kg IV): no mortality, adverse clinical observations, and no aberrations in hematology, coagulation or clinical chemistry | adverse effects on vital physiological systems (safety pharmacology) ([2]; up to the highest levels of CAR tested): no adverse effects | immunological effects or signs of toxicity [3]: no immunological effects or signs of toxicity | Creatinine ([4]; healthy adult Sprague-Dawley rats): 0.45 ± 0.02 mg/dL | ALP ([4]; healthy rats): 170 ± 18 U/L | AST ([4]; healthy rats): 141 ± 31 U/L | BUN ([4]; healthy rats): 17 ± 1 mg/dL | Glucose ([4]; healthy rats): 213 ± 5 | Hb ([4]; healthy rats): 12.8 ± 0.2 g/dL | Tbili ([4]; healthy rats): 0.10 ± 0.04 mg/dL | Wbc ([4]; healthy rats): 4.0 ± 0.7 ×1000/μL | impact on blood renal function, hepatic function, hematologic tests and glucose hemostasis ([4]; healthy rats): no impact | adverse effects on behavior and physiological function (Irwin test in rats): no adverse effects

C[C@]12CCC(=O)C=C1CC[C@@H]1[C@@H]2[C@@H](O)C[C@@]2(C)[C@H]1CC[C@]2(O)C(=O)CO [HCT, hydrocortisone]
survival rate 48 hours after LPS (LPS-induced endotoxemia; hydrocortisone 0.2 mg/kg alone or with CAR 20 mg/kg, IP at 3, 12 and 24 hours): 30% | survival rate 48 hours after LPS (LPS-induced endotoxemia; hydrocortisone 10 mg/kg (High-HCT) IP at 3, 12 and 24 hours): 57% | survival difference versus untreated sepsis 48 hours after LPS (LPS-induced endotoxemia; CAR alone 20 mg/kg, hydrocortisone 0.2 mg/kg (Low-HCT)): no significant survival difference | survival at 7 dpi (SARS-CoV2 [5]): some improvements in survival | rats surviving at 40 hours (CLP sepsis; 2CLP rats, n=5 in each group, hydrocortisone 0.2 mg/kg IV with or without CAR 3 mg/kg IV every 12 hours from 12 hours after surgery): none | hyperglycemia (CLP sepsis; CLP rats): hyperglycemia observed | median Ang2/Ang1 ratio (CLP sepsis; CLP rats, p=0.06): 1.69 | survival at 7 dpi (SARS-CoV2 [6]): some improvements in survival | survival at 7 dpi (SARS-CoV2 [7]): some improvements in survival | endothelial ultrastructure of kidney, lung and liver capillaries [8]: no beneficial effect for septic endothelial disorders
